# Laboratory results as given in publication PMC4114533, “Synthesis, Anti-tubulin and Antiproliferative SAR of Steroidomimetic Dihydroisoquinolinones” (Chemmedchem, 2014).
# Tested on: DU-145 human prostate cancer cells
# Experiment: Antiproliferative assay (WST-1, 96 h), DU-145
# Format: cell-based
# Settings: Homo sapiens; DU-145 cells, 96 h, WST-1, mean of three determinations
# Procedure: Cell lines: DU-145 (brain metastasis carcinoma of the prostate) and MDA MB-231 (metastatic pleural effusion of breast adenocarcinoma) established human cell lines were obtained from ATCC Global Bioresource Center. Cells were maintained in a 5 % CO2 humidified atmosphere at 37 °C in RPMI-1640 medium, supplemented with 10 % fetal bovine serum, penicillin, (100 U mL^−1), and streptomycin (0.1 mg mL^−1). The effect of drugs on tubule formation was assessed using an angiogenesis kit (TCS-Cellworks).
# Antiproliferative assays: DU-145 and MDA MB-231 cells were seeded into 96-well microtitre plates (5000 cells per well) and treated with compound (10^−9–10^−4 M) or with vehicle control. At 96 h post-treatment, live cell counts were determined by WST-1 cell proliferation assay (Roche, Penzberg, Germany), as per the manufacturer’s instructions. Viability results were expressed as a percentage of mean control values resulting in the calculation of the 50 % growth inhibition (GI50). All experiments were performed in triplicate.
row,GI50,SMILES
1,> 100 µM,"COc1cc(CN2CCc3cc(OCc4ccccc4)c(OC)cc3C2=O)cc(OC)c1 [7 d, 6-Benzyloxy-7-methoxy-2-(3,5-dimethoxybenzyl)-3,4-dihydroisoquinolin-1(2H)-one]"
2,> 100 µM,"COc1cc2c(cc1OCc1ccccc1)CCN(Cc1cc(OC)c(OC)c(OC)c1)C2=O [7 e, 6-Benzyloxy-7-methoxy-2-(3,4,5-trimethoxybenzyl)-3,4-dihydroisoquinolin-1(2H)-one]"
3,> 100 µM,"COc1cc(CN2CCc3cc(O)c(OC)cc3C2=O)cc(OC)c1 [8 d, 6-Hydroxy-7-methoxy-2-(3,5-dimethoxybenzyl)-3,4-dihydroisoquinolin-1(2H)-one]"
4,> 100 µM,"COc1cc(CN2CCc3cc(OS(N)(=O)=O)c(OC)cc3C2=O)cc(OC)c1 [9 d, 7-Methoxy-2-(3,5-dimethoxybenzyl)-6-sulfamoyloxy-3,4-dihydroisoquinolin-1(2H)-one]"
5,46.8 µM,"COc1cc(OC)cc(C(=O)N2CCc3cc(OCc4ccccc4)c(OC)cc3C2)c1 [14 f, 6-Benzyloxy-2-(3,5-dimethoxybenzoyl)-7-methoxy-1,2,3,4-tetra-hydroisoquinoline]"
6,> 100 µM,"COc1ccc(C(=O)N2CCc3cc(OCc4ccccc4)c(OC)cc3C2=O)cc1OC [15 e, 6-Benzyloxy-2-(3,4-dimethoxybenzoyl)-7-methoxy-3,4-dihydroisoquinolin-1(2H)-one]"
7,> 100 µM,"COc1cc(OC)cc(C(=O)N2CCc3cc(OCc4ccccc4)c(OC)cc3C2=O)c1 [15 f, 6-Benzyloxy-2-(3,5-dimethoxybenzoyl)-7-methoxy-3,4-dihydroisoquinolin-1(2H)-one]"

# The next lines start with the compound.
row,SMILES,GI50
1,"COc1cc2c(cc1O)CCN(Cc1ccccc1OC)C2=O [8 a, 6-Hydroxy-7-methoxy-2-(2-methoxybenzyl)-3,4-dihydroisoquinolin-1(2H)-one]",> 100 µM
2,"COc1cc2c(cc1O)CCN(Cc1cc(OC)c(OC)c(OC)c1)C2=O [8 e, 6-Hydroxy-7-methoxy-2-(3,4,5-trimethoxybenzyl)-3,4-dihydroisoquinolin-1(2H)-one]",> 100 µM
3,"COc1ccccc1CN1CCc2cc(OS(N)(=O)=O)c(OC)cc2C1=O [9 a, 7-Methoxy-2-(2-methoxybenzyl)-6-sulfamoyloxy-3,4-dihydroisoquinolin-1(2H)-one]",> 100 µM
4,"COc1ccc(CN2CCc3cc(OS(N)(=O)=O)c(OC)cc3C2=O)cc1 [9 c, 7-Methoxy-2-(4-methoxybenzyl)-6-sulfamoyloxy-3,4-dihydroisoquinolin-1(2H)-one]",> 100 µM
5,"COc1cc2c(cc1OS(N)(=O)=O)CCN(Cc1cc(OC)c(OC)c(OC)c1)C2=O [9 e, 7-Methoxy-6-sulfamoyloxy-2-(3,4,5-trimethoxybenzyl)-3,4-dihydroisoquinolin-1(2H)-one]",> 100 µM
6,"COc1ccc(C(=O)N2CCc3cc(OCc4ccccc4)c(OC)cc3C2)cc1OC [14 e, 6-Benzyloxy-2-(3,4-dimethoxybenzoyl)-7-methoxy-1,2,3,4-tetra-hydroisoquinoline]",26.7 µM
7,"COc1ccc(C(=O)N2CCc3cc(OCc4ccccc4)c(OC)cc3C2=O)cc1 [15 d, 6-Benzyloxy-2-(4-methoxybenzoyl)-7-methoxy-3,4-dihydroisoquinolin-1(2H)-one]",> 100 µM
8,"COc1ccc(C(=O)N2CCc3cc(O)c(OC)cc3C2=O)cc1 [16 d, 6-Hydroxy-2-(4-methoxybenzoyl)-7-methoxy-3,4-dihydroisoquinolin-1(2H)-one]",> 100 µM
9,"COc1cc2c(cc1O)CCN(C(=O)c1ccc(OC)c(OC)c1)C2 [18 a, 2-(3,4-Dimethoxybenzoyl)-6-hydroxy-7-methoxy-1,2,3,4-tetrahydroisoquinoline]",> 100 µM
10,"COc1cc(OC)cc(C(=O)N2CCc3cc(O)c(OC)cc3C2)c1 [18 b, 2-(3,5-Dimethoxybenzoyl)-6-hydroxy-7-methoxy-1,2,3,4-tetrahydroisoquinoline]",6.4 µM

# Same assay, conditions: in vitro antiproliferative activity, result in words
row,SMILES,antiproliferative activity (in words)
1,"COc1ccc(C(=O)N2CCc3cc(O)c(OC)cc3C2=O)cc1 [16 d, 6-Hydroxy-2-(4-methoxybenzoyl)-7-methoxy-3,4-dihydroisoquinolin-1(2H)-one]",inactive
2,"COc1cc2c(cc1O)CCN(C(=O)c1ccc(OC)c(OC)c1)C2 [18 a, 2-(3,4-Dimethoxybenzoyl)-6-hydroxy-7-methoxy-1,2,3,4-tetrahydroisoquinoline]",completely inactive
